# Data reported in publication PMC11161644, “An effective and rapidly degradable disinfectant from disinfection byproducts” (Nature Communications, 2024).
# Legend:
# [1] = UPLC/ESI-tqMS time profile of 2,6-DCQ and its degradation products in simulated seawater (pH 8.2, darkness); OH-DCQ formation; details: for Concentration: 2,6-DCQ degradation / OH-DCQ formation; for Peak area: 2,6-DCQ degradation, pH 8.2, darkness
# Description: A Waters UPLC system coupled with ESI-tqMS was used to characterize the degradation products of 2,6-DCQ. The UPLC separation was performed using an HSS T3 column (100 × 2.1 mm, 1.8 μm particle size, Waters) with a column temperature of 35 °C. A gradient eluent of methanol–water was applied at a flow rate of 0.4 mL min^−1. The gradient program was set as follows: methanol/water (v/v) ratio changed linearly from 5/95 to 90/10 in the first 8 min and then returned to 5/95 during 8.0‒8.1 min, which was held for 2.9 min for re-equilibration. The ESI-tqMS was set as follows: ESI negative mode, capillary voltage 2.8 kV, cone voltage 10–50 V (depending on analytes), cone gas flow 50 L h^−1, source temperature 120 °C, desolvation temperature 400 °C, desolvation gas flow 800 L h^−1, collision energy 15–50 eV (depending on analytes), collision gas (argon) flow 0.25 mL min^−1, and mass resolution 15 (1-unit resolution).
# The degradation of 2,6-DCQ in seawater was simulated by adding 10 mg L^−1 2,6-DCQ to 50 mL ultrapure water, which was adjusted to pH 8.2 with 5 mM sodium carbonate (to simulate the alkalinity in seawater and also to be compatible with the subsequent UPLC/ESI-tqMS analysis). The sample was kept in darkness for 0–24 h, during which the pH of the sample was maintained at 8.1 ± 0.1. At a designated reaction time, 7.5 μL of the sample was injected into the UPLC system. For a nonhalogenated degradation product, the selected ion recording (SIR) mode with a dwell time of 0.05 s was adopted to obtain the retention time. For halogenated degradation products, the multiple reaction monitoring mode with a dwell time of 0.05 s was used to obtain the retention time and the isotopic abundance ratio. To investigate the time-dependent profile of 2,6-DCQ and its degradation products, the peak area of each compound was determined using the SIR mode in the UPLC/ESI-tqMS analysis.
# The second aliquot was subjected to analysis of total organic halogen to quantify the collected OH-DCQ. The determination of total organic halogen was based on Standard Method 5320B[52], with modifications of using off-line ion chromatography for halide detection. Briefly, the aliquot was dissolved in 100 mL ultrapure water and acidified to pH 2 with concentrated nitric acid[52] prior to adsorption onto pre-packed activated carbon columns (Mitsubishi). A three-channel adsorption module (TXA03C, Mitsubishi Chemical Analytech) was used for adsorption. An AQF-100 automatic quick furnace (Mitsubishi Chemical Analytech) was used for pyrolysis. During the pyrolysis process, the chlorine atoms in OH-DCQ were converted to chloride. The chloride ion concentration was determined using an ICS-3000 ion chromatography system (Dionex). 2,6-DCQ was used as a standard compound for measuring total organic halogen to determine the recovery of the analysis. The total organic halogen analysis was conducted in duplicate.
# E. coli = assay: Fluorescence microscopic analysis of propidium iodide-stained E. coli (membrane integrity); assay type: cell-based, Escherichia coli; details: with increasing 2,6-DCQ dose
# Description: The E. coli cells in the control and disinfected samples were pelleted by centrifugation at 8000×g (5 min, 4 °C) and resuspended in 200 μL PBS (0.1 M, pH 7.2). Propidium iodide[54] was added to the cell suspension at a concentration of 75 μM. After propidium iodide staining in darkness for 30 min, the samples were washed twice with PBS and mounted on glass slides. The samples were then examined using a fluorescence microscope (Eclipse Ti, Nikon, Japan). The fluorescence intensity was semi-quantified with ImageJ software (National Institutes of Health, Bethesda, MD).
# [2] = Acute oral toxicity, Hodge and Sterner toxicity scale; details: in vivo, rat, inferred from LD10 of ref 49
# Description: The lethal dose 10% (LD 10; the dose at which 10% of the individuals die)
# freshwater fish = system: freshwater fish; design: method as in earlier work; details: USEPA; cited from earlier work
# aquatic invertebrates = system: aquatic invertebrates; design: method as in earlier work; details: USEPA; cited from earlier work
structure (smiles),measurement,setting,value
"O=C1C=C(Cl)C(=O)C(Cl)=C1 [2,6-DCQ, 2,6-dichlorobenzoquinone]",Concentration,[1]; degradation time 0 h,10 mg/L
same,Concentration,[1]; degradation time 0.25 h,9.325 mg/L
same,Concentration,[1]; degradation time 0.5 h,7.7507 mg/L
same,Concentration,[1]; degradation time 0.75 h,7.678 mg/L
same,Concentration,[1]; degradation time 1 h,6.527 mg/L
same,Concentration,[1]; degradation time 1.25 h,5.831 mg/L
same,Concentration,[1]; degradation time 1.5 h,4.783 mg/L
same,Concentration,[1]; degradation time 1.75 h,4.325 mg/L
same,Concentration,[1]; degradation time 2 h,3.926 mg/L
same,Concentration,[1]; degradation time 2.25 h,3.481 mg/L
same,Concentration,[1]; degradation time 2.5 h,3.0344 mg/L
same,Concentration,[1]; degradation time 2.75 h,2.761 mg/L
same,Concentration,[1]; degradation time 3 h,2.333 mg/L
same,Concentration,[1]; degradation time 3.25 h,2.12 mg/L
same,Concentration,[1]; degradation time 3.5 h,1.754 mg/L
same,Concentration,[1]; degradation time 3.75 h,1.608 mg/L
same,Concentration,[1]; degradation time 4 h,1.408 mg/L
same,Concentration,[1]; degradation time 4.5 h,0.9867 mg/L
same,Concentration,[1]; degradation time 5 h,0.7051 mg/L
same,Concentration,[1]; degradation time 5.5 h,0.5833 mg/L
same,Concentration,[1]; degradation time 6 h,0.424 mg/L
same,Concentration,[1]; degradation time 6.5 h,0.2875 mg/L
same,Concentration,[1]; degradation time 7 h,0.2316 mg/L
same,Concentration,[1]; degradation time 7.5 h,0.1796 mg/L
same,Concentration,[1]; degradation time 8 h,0.1533 mg/L
same,Concentration,[1]; degradation time 10 h,0.05498 mg/L
same,Concentration,[1]; degradation time 12 h,0.02477 mg/L
same,Concentration,[1]; degradation time 14 h,0.01436 mg/L
same,Concentration,[1]; degradation time 16 h,0 mg/L
same,Concentration,[1]; degradation time 18 h,0 mg/L
same,Concentration,[1]; degradation time 20 h,0 mg/L
same,Concentration,[1]; degradation time 24 h,0 mg/L
same,Peak area,[1]; 0 h,56527.8
same,Peak area,[1]; 0.25 h,52714.2
same,Peak area,[1]; 0.5 h,43813
same,Peak area,[1]; 0.75 h,43401.4
same,Peak area,[1]; 1 h,36894.2
same,Peak area,[1]; 1.25 h,32960.2
same,Peak area,[1]; 1.5 h,27035.4
same,Peak area,[1]; 1.75 h,24446.8
same,Peak area,[1]; 2 h,22195.6
same,Peak area,[1]; 2.25 h,19679.8
same,Peak area,[1]; 2.5 h,17152.8
same,Peak area,[1]; 2.75 h,15608.6
same,Peak area,[1]; 3 h,13185.2
same,Peak area,[1]; 3.25 h,11984
same,Peak area,[1]; 3.5 h,9914.8
same,Peak area,[1]; 3.75 h,9088.8
same,Peak area,[1]; 4 h,7959
same,Peak area,[1]; 4.5 h,5577.6
same,Peak area,[1]; 5 h,3985.8
same,Peak area,[1]; 5.5 h,3297
same,Peak area,[1]; 6 h,2396.8
same,Peak area,[1]; 6.5 h,1625.4
same,Peak area,[1]; 7 h,1309
same,Peak area,[1]; 7.5 h,1015
same,Peak area,[1]; 8 h,866.6
same,Peak area,[1]; 10 h,310.8
same,Peak area,[1]; 12 h,140
same,Peak area,[1]; 14 h,81.2
same,Peak area,[1]; 16 h,0
same,Peak area,[1]; 18 h,0
same,Peak area,[1]; 20 h,0
same,Peak area,[1]; 24 h,0
same,Propidium iodide fluorescence intensity relative to control sample,E. coli,3.5–59.2 times
same,LD50,[2],≥ 1000 mg/kg
"Cc1cc(O)cc(C)c1Cl [PCMX, para-chloro-meta-xylenol, reference compound]",Toxicity rating to freshwater fish,freshwater fish,highly toxic
same,Toxicity rating to aquatic invertebrates,aquatic invertebrates,moderately toxic
